# Source: PubChem BioAssay AID1918952 (Molecular Pharmacology Branch, DTP, NCI, 2023)
# Values joined by “and” are separate entries in the source; they are usually repeats but may differ in a detail not shown here. Equal values may be shown once.
# Tested on: LG0703-F948-PDC complex spheroid viability
# Test: Anticancer human tumor LG0703-F948-PDC patient-derived lung adenocarcinoma cell line growth inhibition
# Settings: for viability, T/C: stronger effect = lower value
# Excerpt: Multicellular complex tumor spheroid response to LSD1 Inhibitor Iadademstat in combination with a variety of drugs and investigational agents in selected tumor cell lines
# The current study was undertaken to assess response to LSD1 inhibitors in combination with standard-of-care drugs and investigational agents in solid tumor complex spheroid models as well as in the K-562 leukemia. Complex spheroids include a stromal component modeled by human endothelial cells (HUVEC) and fibroblasts modeled by human mesenchymal stem cells (MSCs). The concentration ranges selected for each drug and investigational agent were based upon clinically achievable concentrations if the clinical Cmax of the agent was known.
# Compounds. The drugs and investigational agents used in this study are listed on Table 1. All of the agents used, including staurosporine (NSC755774) and gemcitabine (NSC613327), were obtained from the Developmental Therapeutics Program, NCI. FDA-approved anticancer drugs are available from the NCI at http://dtp.nci.nih.gov/branches/dscb/oncology_drugset_explanation.html. Drugs and investigational agents were >95% pure by proton nuclear magnetic resonance (NMR) and liquid chromatography/mass spectrometry (LC/MS). Stock solutions were prepared at 400x in DMSO, stored at -70 degrees C, and diluted in fresh medium prior to their use. The final concentration of DMSO in cell culture wells never exceeded 0.25% (v/v). The FDA-approved anticancer drug set is available from the Developmental Therapeutics Program at https://dtp.cancer.gov/organization/dscb/obtaining/available_plates.htm. All drugs and investigational agents were tested over a range starting from a high concentration at or near the clinical Cmax and decreasing in half-log increments. If the clinical Cmax for an agent had not been determined, the highest concentration tested was 10 microM.
# Cell Lines. The patient-derived cancer cell (PDC) lines: 292921-168-R-J2-PDC, K24384-001-R-PDC, and 521955-158-R2-J5-PDC pancreatic carcinomas, 556581-035-R-J1 ovarian carcinoma, 324938-238-R-J1-PDC, 855422-203-R-J1-PDC and 883617-216-R-J1-PDC urothelial bladder carcinomas, 743489-274-T-PDC renal cell carcinoma, 138582-R-J1 Merkel cell tumor, K60290-347-R-J1 and K57222-313-R-J1-PDC glioblastomas, 653999-131-R-J2-PDC, LG0703-F948-PDC, and 349418-098-R-PDC non-small cell lung carcinomas, 885512-296-R-J2-PDC, 171881-019-R-J1-PDC breast carcinomas and 186277-243-T-J2-PDC and 233499-124-R-J2-PDC colon carcinomas were obtained from the NCI Patient-Derived Models Repository (PDMR, https://pdmr.cancer.gov). The established cell lines NCI/ADR-RES (RRID:CVCL_14520 and OVCAR-5 (RRID:CVCL_1628) ovarian carcinomas, 786-O (RRID:CVCL_1051) and A498 (RRID:CVCL_A498) renal cell carcinoma, NCI-H211 (ATCC, cat. CRL-5824; RRID:CVCL_1529), NCI-H196 (ATCC, cat. CRL-5823, RRID:CVCL_1509), SW 1271 (ATCC, cat. CRL-2177, RRID:CVCL_1716) and NCI-H1876 (ATCC, cat. CRL-5902, RRID:CVCL_1503) small cell lung carcinomas, MDA-MB-231 (RRID:CVCL_0062) and MDA-MB-468 (RRID:CVCL_0419)breast carcinomas (10-12). Pooled donor human umbilical vein endothelial cells (HUVEC, Lonza, cat. CC-2519) and human mesenchymal stem cells (hMSC, Lonza, cat. PT-2501) were purchased from Lonza (Walkersville, MD).
# Cell Culture. All cells were maintained in an incubator at 37 degrees C and 5% CO2 with 95% humidity. The PDC lines were cultured according to standard operating procedures established by the NCI PDMR (https://pdmr.cancer.gov). Briefly all PDCs were thawed and cultured in Matrigel-coated flasks prepared with a working solution of 1X Ham's F-12 nutrient mix, without supplementation (Invitrogen, Waltham, MA, cat. 11765054), 100 U/mL penicillin-streptomycin (Invitrogen, cat. 15140122), and 2.5% Matrigel (Corning Inc., Corning, NY, cat. 354248) for the first three passages. […]
# 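Further: spheroids exposed to agents for seven days before readout.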
# 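Wherever viability, T/C is given: 100% = DMSO vehicle control wells as normalization base.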
smiles,measurement,setting,value
CCN(c1cc(-c2ccc(CN3CCOCC3)cc2)cc(C(=O)NCc2c(C)cc(C)[nH]c2=O)c1C)C1CCOCC1 + NC1CC1c1ccc(-c2cccc(O)c2)cc1,IC50,"curve of first compound, second compound 0.1 µM",> 3 µM
same,IC50,"curve of first compound, second compound 0.316 µM",> 3 µM
same,IC50,"curve of first compound, second compound 1 µM",> 3 µM
same,IC50,"curve of first compound, second compound 3.16 µM",> 3 µM
same,IC50,"curve of first compound, second compound 10 µM",> 3 µM
same,"viability, T/C","second compound 0.1 µM, first compound 0.00949 µM",104%
same,"viability, T/C","second compound 0.1 µM, first compound 0.03 µM",113%
same,"viability, T/C","second compound 0.1 µM, first compound 0.0949 µM",93.7%
same,"viability, T/C","second compound 0.1 µM, first compound 0.3 µM",105%
same,"viability, T/C","second compound 0.1 µM, first compound 0.949 µM",107%
same,"viability, T/C","second compound 0.1 µM, first compound 3 µM",105%
same,"viability, T/C","second compound 0.316 µM, first compound 0.00949 µM",112%
same,"viability, T/C","second compound 0.316 µM, first compound 0.03 µM",93.9%
same,"viability, T/C","second compound 0.316 µM, first compound 0.0949 µM",101%
same,"viability, T/C","second compound 0.316 µM, first compound 0.3 µM",93.6%
same,"viability, T/C","second compound 0.316 µM, first compound 0.949 µM",102%
same,"viability, T/C","second compound 0.316 µM, first compound 3 µM",94.9%
same,"viability, T/C","second compound 1 µM, first compound 0.00949 µM",89.3%
same,"viability, T/C","second compound 1 µM, first compound 0.03 µM",98.8%
same,"viability, T/C","second compound 1 µM, first compound 0.0949 µM",95.6%
same,"viability, T/C","second compound 1 µM, first compound 0.3 µM",96.2%
same,"viability, T/C","second compound 1 µM, first compound 0.949 µM",94.7%
same,"viability, T/C","second compound 1 µM, first compound 3 µM",93.2%
same,"viability, T/C","second compound 3.16 µM, first compound 0.00949 µM",93.7%
same,"viability, T/C","second compound 3.16 µM, first compound 0.03 µM",95.6%
same,"viability, T/C","second compound 3.16 µM, first compound 0.0949 µM",93.7%
same,"viability, T/C","second compound 3.16 µM, first compound 0.3 µM",85.1%
same,"viability, T/C","second compound 3.16 µM, first compound 0.949 µM",99.7%
same,"viability, T/C","second compound 3.16 µM, first compound 3 µM",95.2%
same,"viability, T/C","second compound 10 µM, first compound 0.00949 µM",105%
same,"viability, T/C","second compound 10 µM, first compound 0.03 µM",91.9%
same,"viability, T/C","second compound 10 µM, first compound 0.0949 µM",84.6%
same,"viability, T/C","second compound 10 µM, first compound 0.3 µM",81.6%
same,"viability, T/C","second compound 10 µM, first compound 0.949 µM",81.8%
same,"viability, T/C","second compound 10 µM, first compound 3 µM",86.1%
CC(C)CC(NC(=O)CNC(=O)c1cc(Cl)ccc1Cl)B1OC(=O)CC(CC(=O)O)(C(=O)O)O1 (configuration not stated),"viability, T/C",compound 0.000316 µM,102% and 100%
same,"viability, T/C",compound 0.001 µM,104% and 92.3%
same,"viability, T/C",compound 0.00316 µM,68.4% and 56.8%
same,"viability, T/C",compound 0.01 µM,21.7% and 15.9%
same,"viability, T/C",compound 0.0316 µM,3.57% and 2.13%
same,"viability, T/C",compound 0.1 µM,0.76% and 0.44%
same,IC50,curve of compound,0.00504 µM and 0.00385 µM
